Each block holds one compound with its values, some of them ahead of it.
Tests used:
[1] = tested on: trypsin activity in rat pancreas; assay: in vivo optical imaging of activatable probe signal in pancreas, caerulein-injection pancreatitis model; conditions: Camostat 300 mg/kg orally; vs untreated caerulein animals; P<0.001
Procedure: 280–320 g female Sprague Dawley rats were received from Charles Rivers Laboratory. Animals were maintained in a facility with a controlled temperature (21–24°C) and lighting (12∶12 h light: dark cycle). Animals were placed on a chlorophyll-free diet (Harlan TK2916) 10 days prior and for the duration of the imaging study to reduce the amount of autofluorescence and had free access to drinking water. One day prior to the experiment, animals were shaved at the abdomen for imaging studies. The pancreatitis model was induced by hyperstimulation with the cholecystokinin (CCK) analog caerulein (Sigma-Aldrich, St. Louis, MO). […]
(§1) In vivo optical imaging studies were conducted using a spectral imaging system, Maestro (Perkin Elmer, Boston, MA). […] Animals were imaged before the start of the study for background/autofluorescence, and at 20 minutes after the mPEG-PL-Cy5.5 probe administration for basal increase in fluorescence due to probe administration. […]
Region of the pancreas and liver were determined and defined from whole body clean images acquired after sacrificing the animals, and used on all corresponding in vivo images in the same animal. Fluorescent intensity at various time points from the same animal were normalized by fluorescence intensity determined before the start of the caerulein insult and the change in signal intensity was then plotted as a function of time.

[2] = target: h cathepsin B (Homo sapiens, UniProt P07858); assay: protease selectivity panel, enzyme activity assay; format: biochemical; conditions: 1 h pre-incubation RT
Source text: (§2) The three drug-like compounds tested in the optical molecular imaging model were characterized for selectivity against a panel of recombinant proteases available at Novartis. The biochemical enzyme activity assays were based on the cleavage of peptidic substrates that are fluorescently labeled. In case of rhodamine-110 label fluorescence intensity and in case of PT14 label fluorescence lifetime was used as readout. The effect of the compound on the enzymatic activity was obtained from the linear part of the substrate cleavage progress curve at substrate concentrations well below KM, typically at 1 µM. All enzyme assays were conducted in 384-well plates with a final assay volume of 25 µl. Enzyme and compound (11 different concentrations from 100 µM to 0.0003 µM) were pre-incubated for one hour at room temperature (RT). Subsequently substrate was added and incubated for 1 h at RT prior to measurement.

[3] = target: h plasma kallikrein (Homo sapiens, UniProt P03952); assay: protease selectivity panel, enzyme activity assay; format: biochemical; conditions: 1 h pre-incubation RT
h plasma kallikrein, sequence (P03952 20-638): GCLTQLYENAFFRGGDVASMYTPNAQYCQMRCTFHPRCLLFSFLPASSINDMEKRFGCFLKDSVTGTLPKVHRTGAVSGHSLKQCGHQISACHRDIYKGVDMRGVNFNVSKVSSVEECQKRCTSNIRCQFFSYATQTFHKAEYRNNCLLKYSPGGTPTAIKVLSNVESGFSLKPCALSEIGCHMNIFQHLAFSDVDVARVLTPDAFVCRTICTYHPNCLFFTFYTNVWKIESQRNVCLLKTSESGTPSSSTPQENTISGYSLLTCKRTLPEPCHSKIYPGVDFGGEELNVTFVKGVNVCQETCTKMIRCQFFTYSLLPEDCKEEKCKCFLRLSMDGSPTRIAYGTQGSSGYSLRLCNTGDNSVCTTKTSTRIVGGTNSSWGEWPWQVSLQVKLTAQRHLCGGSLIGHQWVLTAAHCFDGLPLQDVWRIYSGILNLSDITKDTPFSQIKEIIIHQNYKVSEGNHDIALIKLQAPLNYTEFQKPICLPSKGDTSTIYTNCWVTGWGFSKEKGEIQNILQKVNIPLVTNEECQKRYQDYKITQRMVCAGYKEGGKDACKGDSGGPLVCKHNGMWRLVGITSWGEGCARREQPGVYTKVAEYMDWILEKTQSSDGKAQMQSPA
Source text: as §2

[4] = target: h proteinase 3 (Homo sapiens, UniProt P24158); assay: protease selectivity panel, enzyme activity assay; format: biochemical; conditions: 1 h pre-incubation RT
h proteinase 3, sequence (P24158 28-256): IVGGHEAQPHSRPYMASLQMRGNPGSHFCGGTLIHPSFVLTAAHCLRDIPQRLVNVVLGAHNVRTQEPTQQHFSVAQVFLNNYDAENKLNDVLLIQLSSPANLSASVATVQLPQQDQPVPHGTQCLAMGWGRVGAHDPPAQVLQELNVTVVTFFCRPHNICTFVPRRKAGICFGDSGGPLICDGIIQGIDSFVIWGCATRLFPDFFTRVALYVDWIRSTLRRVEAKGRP
Source text: as §2

[5] = target: h cathepsin K (Homo sapiens, UniProt P43235); assay: protease selectivity panel, enzyme activity assay; format: biochemical; conditions: 1 h pre-incubation RT
h cathepsin K, sequence (P43235 115-329): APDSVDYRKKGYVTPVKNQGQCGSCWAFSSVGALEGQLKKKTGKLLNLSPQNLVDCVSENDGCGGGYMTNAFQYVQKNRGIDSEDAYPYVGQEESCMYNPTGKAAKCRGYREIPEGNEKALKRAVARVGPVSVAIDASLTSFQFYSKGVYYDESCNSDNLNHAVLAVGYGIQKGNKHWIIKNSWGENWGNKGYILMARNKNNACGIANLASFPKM
Source text: as §2

[6] = target: h cathepsin L (Homo sapiens, UniProt P07711); assay: protease selectivity panel, enzyme activity assay; format: biochemical; conditions: 1 h pre-incubation RT
h cathepsin L, sequence (P07711 114-333): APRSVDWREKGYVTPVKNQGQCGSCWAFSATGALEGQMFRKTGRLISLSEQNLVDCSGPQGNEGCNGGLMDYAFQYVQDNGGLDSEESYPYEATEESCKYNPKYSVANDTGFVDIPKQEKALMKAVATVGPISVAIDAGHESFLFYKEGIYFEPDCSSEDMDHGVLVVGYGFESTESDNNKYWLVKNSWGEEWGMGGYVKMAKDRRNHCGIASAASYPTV
Source text: as §2

[7] = target: h kallikrein 1 (Homo sapiens, UniProt P06870); assay: protease selectivity panel, enzyme activity assay; format: biochemical; conditions: 1 h pre-incubation RT
h kallikrein 1, sequence (P06870 25-262): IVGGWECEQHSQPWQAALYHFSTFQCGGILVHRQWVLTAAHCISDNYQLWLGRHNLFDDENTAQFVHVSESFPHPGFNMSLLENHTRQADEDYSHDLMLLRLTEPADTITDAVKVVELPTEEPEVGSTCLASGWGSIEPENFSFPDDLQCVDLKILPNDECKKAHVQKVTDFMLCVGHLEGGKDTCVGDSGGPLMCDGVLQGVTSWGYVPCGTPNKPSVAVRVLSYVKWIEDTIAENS
Source text: as §2

[8] = target: h matriptase (Homo sapiens, UniProt Q9Y5Y6); assay: protease selectivity panel, enzyme activity assay; format: biochemical; conditions: 1 h pre-incubation RT
h matriptase, sequence (Q9Y5Y6 whole entry): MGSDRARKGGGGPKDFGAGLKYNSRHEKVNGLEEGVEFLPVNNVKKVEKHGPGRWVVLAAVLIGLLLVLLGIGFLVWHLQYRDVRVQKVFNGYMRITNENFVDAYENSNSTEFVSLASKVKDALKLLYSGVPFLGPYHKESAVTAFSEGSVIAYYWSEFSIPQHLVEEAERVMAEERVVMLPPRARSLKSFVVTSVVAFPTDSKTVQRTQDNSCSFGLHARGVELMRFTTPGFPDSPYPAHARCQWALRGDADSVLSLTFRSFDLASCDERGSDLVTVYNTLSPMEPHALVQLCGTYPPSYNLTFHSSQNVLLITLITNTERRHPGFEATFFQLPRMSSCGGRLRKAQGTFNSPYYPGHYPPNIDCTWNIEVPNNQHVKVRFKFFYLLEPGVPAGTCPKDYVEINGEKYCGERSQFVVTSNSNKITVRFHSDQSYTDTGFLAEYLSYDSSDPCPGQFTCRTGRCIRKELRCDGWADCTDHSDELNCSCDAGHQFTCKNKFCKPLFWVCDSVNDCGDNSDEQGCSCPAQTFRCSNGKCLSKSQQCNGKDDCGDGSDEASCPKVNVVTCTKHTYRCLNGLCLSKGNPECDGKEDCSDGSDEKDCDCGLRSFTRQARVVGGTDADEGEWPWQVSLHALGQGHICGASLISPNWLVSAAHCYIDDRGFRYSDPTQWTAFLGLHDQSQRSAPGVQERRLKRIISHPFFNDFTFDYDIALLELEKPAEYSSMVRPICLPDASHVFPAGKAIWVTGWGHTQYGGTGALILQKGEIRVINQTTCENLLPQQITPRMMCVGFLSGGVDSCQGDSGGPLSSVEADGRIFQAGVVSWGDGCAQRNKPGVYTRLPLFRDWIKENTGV
Source text: as §2

[9] = target: h factor VIIa (Homo sapiens, UniProt P08709); assay: protease selectivity panel, enzyme activity assay; format: biochemical; conditions: 1 h pre-incubation RT
Source text: as §2

[10] = target: h kallikrein 7 (Homo sapiens, UniProt P49862); assay: protease selectivity panel, enzyme activity assay; format: biochemical; conditions: 1 h pre-incubation RT
h kallikrein 7, sequence (P49862 30-253): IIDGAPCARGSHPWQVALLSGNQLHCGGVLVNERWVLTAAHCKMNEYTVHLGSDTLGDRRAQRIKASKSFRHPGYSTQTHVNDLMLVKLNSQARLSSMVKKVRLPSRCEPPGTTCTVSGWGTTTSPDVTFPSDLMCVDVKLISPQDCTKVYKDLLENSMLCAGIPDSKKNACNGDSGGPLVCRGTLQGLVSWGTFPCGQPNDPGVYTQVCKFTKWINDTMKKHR
Source text: as §2

[11] = target: h cathepsin C (Homo sapiens, UniProt P53634); assay: protease selectivity panel, enzyme activity assay; format: biochemical; conditions: 1 h pre-incubation RT
h cathepsin C, sequence (P53634 25-463): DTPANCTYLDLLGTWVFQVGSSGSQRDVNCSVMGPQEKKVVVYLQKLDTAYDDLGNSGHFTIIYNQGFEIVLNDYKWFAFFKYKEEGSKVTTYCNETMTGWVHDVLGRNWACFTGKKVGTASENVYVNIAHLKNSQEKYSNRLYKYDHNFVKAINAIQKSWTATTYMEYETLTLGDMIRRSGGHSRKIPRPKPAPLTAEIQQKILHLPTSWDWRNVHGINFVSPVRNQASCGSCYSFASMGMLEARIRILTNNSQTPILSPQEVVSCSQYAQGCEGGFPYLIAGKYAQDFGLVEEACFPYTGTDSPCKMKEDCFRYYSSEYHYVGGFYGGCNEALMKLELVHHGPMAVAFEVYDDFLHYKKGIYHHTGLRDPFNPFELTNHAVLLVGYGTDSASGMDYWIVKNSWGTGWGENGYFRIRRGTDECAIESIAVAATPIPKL
Source text: as §2

[12] = target: h chymase (Homo sapiens, UniProt P23946); assay: protease selectivity panel, enzyme activity assay; format: biochemical; conditions: 1 h pre-incubation RT
h chymase, sequence (P23946 22-247): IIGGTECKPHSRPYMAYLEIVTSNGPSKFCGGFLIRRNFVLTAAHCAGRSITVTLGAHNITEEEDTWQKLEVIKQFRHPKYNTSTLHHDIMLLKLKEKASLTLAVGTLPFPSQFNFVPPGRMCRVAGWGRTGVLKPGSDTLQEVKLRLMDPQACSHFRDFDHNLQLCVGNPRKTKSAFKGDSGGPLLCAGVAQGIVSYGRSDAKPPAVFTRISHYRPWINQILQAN
Source text: as §2

[13] = target: h cathepsin S (Homo sapiens, UniProt P25774); assay: protease selectivity panel, enzyme activity assay; format: biochemical; conditions: 1 h pre-incubation RT
h cathepsin S, sequence (P25774 115-331): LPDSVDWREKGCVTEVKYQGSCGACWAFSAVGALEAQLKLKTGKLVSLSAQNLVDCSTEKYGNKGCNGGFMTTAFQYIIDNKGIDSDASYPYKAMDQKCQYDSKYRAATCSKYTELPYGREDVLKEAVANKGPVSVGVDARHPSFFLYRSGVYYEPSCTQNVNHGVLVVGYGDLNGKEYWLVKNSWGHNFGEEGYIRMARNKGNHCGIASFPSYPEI
Source text: as §2

[14] = target: h neutrophil elastase (Homo sapiens, UniProt P08246); assay: protease selectivity panel, enzyme activity assay; format: biochemical; conditions: 1 h pre-incubation RT
h neutrophil elastase, sequence (P08246 30-267): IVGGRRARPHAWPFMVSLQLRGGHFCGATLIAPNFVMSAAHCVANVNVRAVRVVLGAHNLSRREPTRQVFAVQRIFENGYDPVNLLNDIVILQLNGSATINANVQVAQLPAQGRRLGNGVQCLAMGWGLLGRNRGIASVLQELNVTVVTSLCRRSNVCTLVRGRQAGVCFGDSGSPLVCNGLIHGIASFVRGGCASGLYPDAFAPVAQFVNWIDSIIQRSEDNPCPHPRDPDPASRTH
Source text: as §2

[15] = target: h factor XIa (Homo sapiens, UniProt P03951); assay: protease selectivity panel, enzyme activity assay; format: biochemical; conditions: 1 h pre-incubation RT
h factor XIa, sequence (P03951 388-625 limits assumed): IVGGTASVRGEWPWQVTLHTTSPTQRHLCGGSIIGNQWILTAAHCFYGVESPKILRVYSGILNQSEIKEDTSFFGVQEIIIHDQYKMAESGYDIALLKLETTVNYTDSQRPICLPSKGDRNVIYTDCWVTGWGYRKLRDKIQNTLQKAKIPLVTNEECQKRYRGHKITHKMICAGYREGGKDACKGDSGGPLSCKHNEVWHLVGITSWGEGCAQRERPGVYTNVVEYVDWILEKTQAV
Source text: as §2

[16] = target: h factor XIIa (Homo sapiens, UniProt P00748); assay: protease selectivity panel, enzyme activity assay; format: biochemical; conditions: 1 h pre-incubation RT
h factor XIIa, sequence (P00748 373-615 limits assumed): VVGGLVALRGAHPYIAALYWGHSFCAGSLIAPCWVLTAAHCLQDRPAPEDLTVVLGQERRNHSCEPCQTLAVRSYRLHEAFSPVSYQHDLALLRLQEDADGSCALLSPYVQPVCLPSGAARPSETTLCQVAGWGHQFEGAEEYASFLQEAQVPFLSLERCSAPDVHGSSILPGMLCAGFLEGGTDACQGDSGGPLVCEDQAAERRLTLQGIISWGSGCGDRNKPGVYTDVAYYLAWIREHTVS
Source text: as §2

[17] = target: h cationic trypsin (Homo sapiens, UniProt P07477); assay: protease selectivity panel, enzyme activity assay; format: biochemical; conditions: 1 h pre-incubation RT
Source text: as §2

[18] = target: h factor Xa (Homo sapiens, UniProt P00742); assay: protease selectivity panel, enzyme activity assay; format: biochemical; conditions: 1 h pre-incubation RT
Source text: as §2

[19] = target: h cathepsin G (Homo sapiens, UniProt P08311); assay: protease selectivity panel, enzyme activity assay; format: biochemical; conditions: 1 h pre-incubation RT
h cathepsin G, sequence (P08311 21-255): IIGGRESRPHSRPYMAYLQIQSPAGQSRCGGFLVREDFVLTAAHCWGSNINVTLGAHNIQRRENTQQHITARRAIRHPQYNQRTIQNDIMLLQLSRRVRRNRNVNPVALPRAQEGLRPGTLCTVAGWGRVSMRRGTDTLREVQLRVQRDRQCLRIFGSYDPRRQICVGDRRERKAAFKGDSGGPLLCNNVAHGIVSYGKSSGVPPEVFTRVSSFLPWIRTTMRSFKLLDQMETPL
Source text: as §2

[20] = target: h kallikrein 5 (Homo sapiens, UniProt Q9Y337); assay: protease selectivity panel, enzyme activity assay; format: biochemical; conditions: 1 h pre-incubation RT
h kallikrein 5, sequence (Q9Y337 23-293): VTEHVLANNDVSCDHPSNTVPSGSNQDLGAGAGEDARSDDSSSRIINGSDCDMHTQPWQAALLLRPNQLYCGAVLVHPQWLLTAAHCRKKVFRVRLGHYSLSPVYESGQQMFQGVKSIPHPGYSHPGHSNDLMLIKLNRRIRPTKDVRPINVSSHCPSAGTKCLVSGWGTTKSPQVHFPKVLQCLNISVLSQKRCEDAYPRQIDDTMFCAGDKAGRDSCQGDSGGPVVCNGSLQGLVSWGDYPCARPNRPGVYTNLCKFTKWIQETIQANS
Source text: as §2

[21] = target: h chymotrypsin; assay: protease selectivity panel, enzyme activity assay; format: biochemical, human; conditions: 1 h pre-incubation RT
Source text: as §2

[22] = target: h pancreatic elastase; assay: protease selectivity panel, enzyme activity assay; format: biochemical, human; conditions: 1 h pre-incubation RT
Source text: as §2

[23] = tested on: rat caerulein-injection pancreatitis model; assay: in vivo edema imaging with blood pool agent Angiosense 680; conditions: Camostat 300 mg/kg orally; three caerulein doses SC
[24] = tested on: trypsin activity in rat pancreas; assay: ex vivo fluorescence imaging of excised pancreas (total signal intensity of activated probe); format: in vivo; conditions: Camostat 300 mg/kg orally; vs untreated animals; P<0.01
Procedure: 280–320 g female Sprague Dawley rats were received from Charles Rivers Laboratory. Animals were maintained in a facility with a controlled temperature (21–24°C) and lighting (12∶12 h light: dark cycle). Animals were placed on a chlorophyll-free diet (Harlan TK2916) 10 days prior and for the duration of the imaging study to reduce the amount of autofluorescence and had free access to drinking water. One day prior to the experiment, animals were shaved at the abdomen for imaging studies. The pancreatitis model was induced by hyperstimulation with the cholecystokinin (CCK) analog caerulein (Sigma-Aldrich, St. Louis, MO). […] For studies with Novartis166 and Novartis848, varying concentrations, in a solution, were administered intraperitonealy (IP) only once, one hour before caerulein administration. Self-quenched protease activatable mPEG-PL-Cy5.5 probe was administered to all animals via the tail vein at a dose of 80 nmol/kg 40 minutes prior to the start of caerulein administration for measuring the amount of activated trypsin in the pancreas. […]
as §1

[25] = tested on: trypsin; assay: assessment of trypsin concentration in pancreas extracts; format: in vivo, rat; conditions: Camostat 300 mg/kg orally; vs untreated saline animals
Procedure: The pancreas was removed from the euthanized animals, weighted and transferred into Dispomix tubes (Miltenyi Biotec, Bergisch Gladbach, Germany). After the addition of ice-cold PBS buffer (1 µl per […]), the pancreas was homogenized with a gentleMACS™ Dissociator (Miltenyi Biotec, Bergisch Gladbach, Germany). The homogenate was centrifuged at 4°C and 20,000 g for 10 min. The supernatant was stored at −20°C. The activity assay was performed at room temperature in 384-well plates in a total assay volume of 20 µl per well. For fluorescence quantification a Safire2 (Tecan, Maennedorf, Switzerland) instrument was used with fluorescence excitation and emission wavelengths of 485 nm and 535 nm, respectively. 10 µl of dilutions of extracts (typical range: 1∶500 to 1∶2,000) were transferred to 384 well assay plates. […] The enzymatic activity in the pancreatic extract was obtained from the linear progression curves and determined after one hour. Signal-to-background (S/B) values within the linear range of the assay signal were selected to calculate the trypsin concentrations of the extract analyzed. […] The amount of trypsin was calculated by transforming S/B levels obtained in the activity assay of extract dilutions fulfilling initial enzyme velocity criteria into trypsin concentration values via a calibration curve using recombinant rat trypsin S1-94.

[26] = tested on: trypsin; assay: mPEG-PL-Cy5.5 probe activation by pancreatic enzymes with or without SPINK1; format: biochemical; conditions: 0.2 µM probe, 100 nM enzyme, 1 µM SPINK1
Procedure: All enzyme assays were conducted in 384-well plates with a final substrate ( = mPEG-PL-Cy5.5 probe) concentration of 0.2 µM diluted in the appropriate assay buffer in a final assay volume of 25 µl. Enzyme and, in cases where applied, SPINK-1 (final assay concentration: 1 µM) were pre-incubated for one hour at room temperature. Subsequently substrate was added and incubated for 3 h at 37°C prior to measurement. All enzymes were either commercially obtained or prepared as described previously, [17], [18], [19].
Enzyme, SPINK-1 and substrate solutions were transferred to 384-well plates by means of a CyBi Well pipettor (CyBio, Jena, Germany). Plate measurements were conducted by the means of a Safire2 microplate reader (TECAN, Maennedorf, Switzerland) and wavelengths of 680 nm and 700 nm were taken for fluorescence excitation and emission acquisition, respectively. The bandwidths were set to 10 nm in both the excitation and the emission path. The fluorescence in each well was excited by three flashes per measurement.

- IC50 [2]: > 50 µM
- IC50 [3]: 0.002 µM
- IC50 [4]: > 50 µM
- IC50 [5]: > 50 µM
- IC50 [6]: > 50 µM
- IC50 [7]: 72.4 µM
- IC50 [8]: 0.0065 µM
- IC50 [9]: 0.531 µM
- IC50 [10]: 41.5 µM
- IC50 [11]: > 50 µM
- IC50 [12]: > 50 µM
- IC50 [13]: > 50 µM
- IC50 [14]: 91.4 µM
- IC50 [15]: 0.008 µM
- IC50 [16]: 8 µM
- IC50 [17]: 0.0028 µM
- IC50 [18]: 6.6 µM
- IC50 [19]: 44.6 µM
- IC50 [20]: 0.1 µM
- IC50 [21]: 12.2 µM
- IC50 [22]: > 50 µM
Compound: CN(C)C(=O)COC(=O)Cc1ccc(OC(=O)c2ccc(NC(=N)N)cc2)cc1 [Camostat]
- in vivo mPEG-PL-Cy5.5 probe activation in pancreas [1]: reduced probe activation
- Angiosense 680 signal in pancreas (edema imaging) [23]: no signal enhancement
- probe activation in dissected pancreas (ex vivo) [24]: suppressed
- amount of enzymatically active trypsin in pancreas [25]: significant reduction in the amount of active trypsin

- protease activation of mPEG-PL-Cy5.5 probe by trypsin in the presence of SPINK1 [26]: suppressed to background levels
Compound: SPINK1: highly specific trypsin inhibiting protein; endogenous trypsin inhibitor Kazal type 1 (DSLGREAKCYNELNGCTKIYDPVCGTDGNTYPNECVLCFENRKRQTSILIQKSGPC; UniProt P00995 24-79, looked up)
